According to ChEMBL document CHEMBL4619743, “Synthetic approaches towards bedaquiline and its derivatives” (2020):
In brackets after ≈: the same amount, converted by molar mass.

Key:
[1] = tested on: Mycobacterium tuberculosis; assay: Antimycobacterial activity against Mycobacterium tuberculosis; type: functional
[2] = tested on: Mycobacterium tuberculosis; assay: Antimycobacterial activity against Mycobacterium tuberculosis H37Rv; type: functional

Structure (SMILES) | MIC90 [1] [µg/mL] | MIC90 [2] [µg/mL]
COc1cc2ccc(Br)cc2cc1[C@@H]1O[C@H]1CO | 0.13 to 0.5 (≈ 0.42 to 1.62 µM) | 0.11 (≈ 0.356 µM)
COc1cc2ccc(Br)cc2cc1[C@@H](c1ccccc1)[C@@](O)(CCN(C)C)c1cccc(Br)c1 | – | 0.01 (≈ 0.0171 µM)
COc1cc2ccc(Br)cc2cc1[C@@H](c1ccccc1)[C@@](O)(CCN(C)C)c1cccc2ccccc12 | – | 0.59 (≈ 1.06 µM)
